Measured values: ChEMBL document CHEMBL3124868, “Design, synthesis, pharmacological evaluation, QSAR analysis, molecular modeling and ADMET of novel donepezil-indolyl hybrids as multipotent cholinesterase/monoamine oxidase inhibitors for the potential treatment of Alzheimer's disease” (Eur J Med Chem, 2014)

Tests used:
[1] = biological target: T1, Amine oxidase [flavin-containing] B (Homo sapiens, UniProt P27338); assay: Inhibition of human recombinant MAO-B using tyramine as substrate preincubated for 30 mins followed by substrate addition measured for 1 hr by fluorometric assay
T1 sequence (P27338 whole entry): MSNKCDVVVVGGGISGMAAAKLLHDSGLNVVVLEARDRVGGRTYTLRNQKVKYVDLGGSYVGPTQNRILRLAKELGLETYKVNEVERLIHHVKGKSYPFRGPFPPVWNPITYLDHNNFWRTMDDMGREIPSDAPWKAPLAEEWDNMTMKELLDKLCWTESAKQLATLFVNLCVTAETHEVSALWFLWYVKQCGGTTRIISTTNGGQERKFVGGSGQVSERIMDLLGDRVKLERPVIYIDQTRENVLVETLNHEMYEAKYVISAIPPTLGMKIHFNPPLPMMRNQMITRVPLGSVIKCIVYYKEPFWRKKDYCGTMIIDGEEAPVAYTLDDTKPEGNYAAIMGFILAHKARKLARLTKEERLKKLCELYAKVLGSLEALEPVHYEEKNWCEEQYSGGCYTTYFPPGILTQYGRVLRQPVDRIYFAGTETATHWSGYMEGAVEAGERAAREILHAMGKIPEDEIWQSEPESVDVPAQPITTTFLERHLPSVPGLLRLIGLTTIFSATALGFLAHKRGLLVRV

[2] = biological target: T2, Amine oxidase [flavin-containing] A (Homo sapiens, UniProt P21397); assay: Inhibition of human recombinant MAO-A using tyramine as substrate preincubated for 30 mins followed by substrate addition measured for 1 hr by fluorometric assay
T2 sequence (P21397 whole entry): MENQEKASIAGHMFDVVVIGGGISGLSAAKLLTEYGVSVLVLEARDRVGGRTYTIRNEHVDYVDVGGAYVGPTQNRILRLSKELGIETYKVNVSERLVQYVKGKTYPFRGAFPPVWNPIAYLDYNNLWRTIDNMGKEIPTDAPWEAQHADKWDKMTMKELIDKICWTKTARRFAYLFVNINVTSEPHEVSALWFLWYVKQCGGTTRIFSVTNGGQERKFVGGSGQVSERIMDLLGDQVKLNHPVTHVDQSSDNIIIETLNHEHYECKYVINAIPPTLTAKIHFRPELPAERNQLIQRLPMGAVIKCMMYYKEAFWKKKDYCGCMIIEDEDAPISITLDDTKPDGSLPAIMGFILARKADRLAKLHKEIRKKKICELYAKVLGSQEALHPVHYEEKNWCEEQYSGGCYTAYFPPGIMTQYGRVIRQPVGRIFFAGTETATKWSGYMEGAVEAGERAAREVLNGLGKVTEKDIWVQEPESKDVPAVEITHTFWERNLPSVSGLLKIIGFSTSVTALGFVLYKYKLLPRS

[3] = Selectivity ratio of IC50 for equine serum BuChE to IC50 for electric eel AChE
Cholinesterase = Cholinesterase (Equus caballus, UniProt P81908); assay: Inhibition of equine serum BuChE using butyrylthiocholine iodide as substrate preincubated for 20 mins followed by substrate addition measured after 25 mins by Ellman's method
Sequence of Cholinesterase (P81908 whole entry): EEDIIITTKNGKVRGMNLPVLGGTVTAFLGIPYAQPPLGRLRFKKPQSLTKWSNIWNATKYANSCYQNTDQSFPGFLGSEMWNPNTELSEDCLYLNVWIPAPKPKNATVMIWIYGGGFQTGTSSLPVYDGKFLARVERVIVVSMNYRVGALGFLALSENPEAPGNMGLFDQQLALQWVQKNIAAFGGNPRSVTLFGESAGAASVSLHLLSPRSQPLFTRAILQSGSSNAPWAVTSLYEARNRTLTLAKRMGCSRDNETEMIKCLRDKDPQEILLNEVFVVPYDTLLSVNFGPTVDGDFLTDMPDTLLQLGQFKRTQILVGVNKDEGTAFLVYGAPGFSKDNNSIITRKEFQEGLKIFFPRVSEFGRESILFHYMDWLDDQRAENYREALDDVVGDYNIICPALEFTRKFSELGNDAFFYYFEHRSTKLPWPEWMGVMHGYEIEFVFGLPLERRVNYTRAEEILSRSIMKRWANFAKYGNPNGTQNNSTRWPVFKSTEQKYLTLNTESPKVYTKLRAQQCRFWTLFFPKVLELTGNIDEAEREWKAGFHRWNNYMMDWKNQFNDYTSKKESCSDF

Acetylcholinesterase = Acetylcholinesterase (Electrophorus electricus, UniProt O42275); assay: Inhibition of electric eel AChE using acetylthiocholine iodide as substrate preincubated for 20 mins followed by substrate addition measured after 5 mins by Ellman's method
Sequence of Acetylcholinesterase (O42275 whole entry): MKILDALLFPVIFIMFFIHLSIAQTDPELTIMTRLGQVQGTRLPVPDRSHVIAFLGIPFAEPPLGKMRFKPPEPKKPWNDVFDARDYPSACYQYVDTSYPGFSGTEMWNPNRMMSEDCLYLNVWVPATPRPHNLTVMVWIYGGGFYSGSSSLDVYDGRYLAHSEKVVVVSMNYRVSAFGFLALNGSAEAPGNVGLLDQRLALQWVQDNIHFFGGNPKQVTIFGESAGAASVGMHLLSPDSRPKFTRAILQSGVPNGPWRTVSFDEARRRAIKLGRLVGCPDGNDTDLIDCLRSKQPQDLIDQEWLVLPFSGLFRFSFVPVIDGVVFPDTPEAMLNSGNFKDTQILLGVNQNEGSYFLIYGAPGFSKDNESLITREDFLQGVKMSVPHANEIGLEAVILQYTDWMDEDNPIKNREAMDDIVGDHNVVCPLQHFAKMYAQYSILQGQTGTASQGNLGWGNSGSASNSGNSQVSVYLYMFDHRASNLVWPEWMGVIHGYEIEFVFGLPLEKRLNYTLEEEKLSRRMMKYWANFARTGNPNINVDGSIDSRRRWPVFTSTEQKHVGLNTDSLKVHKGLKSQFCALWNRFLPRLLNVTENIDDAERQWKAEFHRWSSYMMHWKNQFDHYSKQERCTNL

Homo sapiens = species on record: Homo sapiens; assay: Selectivity ratio of IC50 for human recombinant MAO-B to IC50 for human recombinant MAO-A

Cn1c(CN2CCOCC2)cc2cc(OCCCC3CCN(Cc4ccccc4)CC3)ccc21
IC50 [1]: > 100 µM
IC50 ([2]; read-out: IC50): 4.4 µM
Ratio IC50 [3]: 7.9
IC50 (Cholinesterase): 0.79 µM
IC50 (Acetylcholinesterase): 0.1 µM
Ratio IC50 (Homo sapiens): > 22.7

Cn1c(CNc2ccccc2)cc2cc(OCCCC3CCN(Cc4ccccc4)CC3)ccc21
IC50 [1]: > 100 µM
IC50 ([2]; read-out: IC50): > 100 µM
IC50 ([2]; read-out: pIC50 (converted)): 100 µM
Ratio IC50 [3]: 10
IC50 (Cholinesterase): 0.85 µM
IC50 (Acetylcholinesterase): 0.084 µM
Ratio IC50 (Homo sapiens): > 1

Cn1c(C(=O)NCc2ccccc2)cc2cc(OCCCC3CCN(Cc4ccccc4)CC3)ccc21
IC50 [1]: > 100 µM
IC50 ([2]; read-out: IC50): > 100 µM
Ratio IC50 [3]: > 1
IC50 (Cholinesterase): > 100 µM
IC50 (Acetylcholinesterase): > 100 µM
Ratio IC50 (Homo sapiens): > 1

Cn1c(C(=O)O)cc2cc(OCCCC3CCN(Cc4ccccc4)CC3)ccc21
IC50 [1]: > 100 µM
IC50 ([2]; read-out: IC50): > 100 µM
Ratio IC50 [3]: > 250
IC50 (Cholinesterase): > 100 µM
IC50 (Acetylcholinesterase): 0.4 µM
Ratio IC50 (Homo sapiens): > 1

Cn1c(C(=O)Nc2ccccc2)cc2cc(OCCCC3CCN(Cc4ccccc4)CC3)ccc21
IC50 [1]: > 100 µM
IC50 ([2]; read-out: IC50): > 100 µM
Ratio IC50 [3]: > 1
IC50 (Cholinesterase): > 100 µM
IC50 (Acetylcholinesterase): > 100 µM
Ratio IC50 (Homo sapiens): > 1

Cn1c(CO)cc2cc(OCCCC3CCN(Cc4ccccc4)CC3)ccc21
IC50 [1]: > 100 µM
IC50 ([2]; read-out: IC50): 4.26 µM
Ratio IC50 [3]: > 416
IC50 (Cholinesterase): > 100 µM
IC50 (Acetylcholinesterase): 0.24 µM
Ratio IC50 (Homo sapiens): > 23

COc1ccc2c(c1)cc(CNCc1ccccc1)n2C
IC50 [1]: > 100 µM
IC50 ([2]; read-out: IC50): > 100 µM
IC50 ([2]; read-out: pIC50 (converted)): 100 µM
Ratio IC50 [3]: 1.5
IC50 (Cholinesterase): 22.9 µM
IC50 (Acetylcholinesterase): 15.2 µM
Ratio IC50 (Homo sapiens): > 1

COc1ccc2c(c1)cc(C(=O)NCc1ccccc1)n2C
IC50 [1]: > 100 µM
IC50 ([2]; read-out: IC50): > 100 µM
Ratio IC50 [3]: > 1
IC50 (Cholinesterase): > 100 µM
IC50 (Acetylcholinesterase): > 100 µM
Ratio IC50 (Homo sapiens): > 1

C#CCNCc1cc2cc(OCCCC3CCN(Cc4ccccc4)CC3)ccc2n1C
IC50 [1]: 0.15 µM
IC50 ([2]; read-out: IC50): 0.0055 µM
Ratio IC50 [3]: 4.4
IC50 (Cholinesterase): 0.83 µM
IC50 (Acetylcholinesterase): 0.19 µM
Ratio IC50 (Homo sapiens): 27.3

Cn1c(CNCc2ccccc2)cc2cc(OCCCC3CCN(Cc4ccccc4)CC3)ccc21
IC50 [1]: > 100 µM
IC50 ([2]; read-out: IC50): > 100 µM
IC50 ([2]; read-out: pIC50 (converted)): 100 µM
Ratio IC50 [3]: 2
IC50 (Cholinesterase): 0.29 µM
IC50 (Acetylcholinesterase): 0.14 µM
Ratio IC50 (Homo sapiens): > 1

C#CCN(C)Cc1cc2cc(OCCCC3CCN(Cc4ccccc4)CC3)ccc2n1C
IC50 ([2]; read-out: IC50): 0.0042 µM

Cn1c(C(=O)N2CCOCC2)cc2cc(OCCCC3CCN(Cc4ccccc4)CC3)ccc21
IC50 [1]: > 100 µM
IC50 ([2]; read-out: IC50): > 100 µM
Ratio IC50 [3]: > 370
IC50 (Cholinesterase): > 100 µM
IC50 (Acetylcholinesterase): 0.27 µM
Ratio IC50 (Homo sapiens): > 1

CCOC(=O)c1cc2cc(OCCCC3CCN(Cc4ccccc4)CC3)ccc2n1C
IC50 [1]: > 100 µM
IC50 ([2]; read-out: IC50): 1.53 µM
Ratio IC50 [3]: > 370
IC50 (Cholinesterase): > 100 µM
IC50 (Acetylcholinesterase): 0.27 µM
Ratio IC50 (Homo sapiens): > 65

C=CCNCc1cc2cc(OCCCC3CCN(Cc4ccccc4)CC3)ccc2n1C
IC50 [1]: 15.3 µM
IC50 ([2]; read-out: IC50): 0.98 µM
Ratio IC50 [3]: 3.3
IC50 (Cholinesterase): 0.46 µM
IC50 (Acetylcholinesterase): 0.14 µM
Ratio IC50 (Homo sapiens): 15.6

C#CCNC(=O)c1cc2cc(OCCCC3CCN(Cc4ccccc4)CC3)ccc2n1C
IC50 [1]: > 100 µM
IC50 ([2]; read-out: IC50): > 100 µM
Ratio IC50 [3]: > 770
IC50 (Cholinesterase): > 100 µM
IC50 (Acetylcholinesterase): 0.13 µM
Ratio IC50 (Homo sapiens): > 1
